Experiment in all cases: Growth of heme resistant mutant in CeHR medium
Type in all cases: in vivo, Caenorhabditis elegans

For test [1], the system named is C. elegans mutant IH1068 n. More on the design: key to Growth 1.6 μM hemin / Growth 0.5 μM GaPP: + = wild type equivalent In growth; ND: No growth. Here is the method:
(§1) To further increase the stringency of our genetic screen we split the contents from each 800 μM hemin selection flasks into two flasks containing either 800 μM or 1000 μM hemin. This allowed us to use another tier of positive selection to identify mutants with greater resistance to heme toxicity. Mutants from each flask were isolated and treated as a separate entity by giving an identification number based on the Genetic Nomenclature Guidelines used for C. elegans (http://biosci.umn.edu/CGC/Nomenclature/nomenguid.htm). To eliminate EMS-induced spurious mutations that could result in false positive, the mutants were outcrossed to wild-type N2 males. After five outcrosses, which replaces ˜97% of the mutant genome, mutants that bred true were selected for further analysis. Using this procedure, we isolated 13 individual mutants that were resistant to heme toxicity. These mutants were further characterized by analyzing Mendelian segregation ratios, X-linkage, phenotype penetrance, generation times, brood size, and their ability to grow under low hemin. […] This observation was surprising because we anticipated that high heme-resistant mutants will grow poorly under low heme. Based on the mutant's growth profile at low and high heme levels, we broadly categorized them into three phenotypic classes: class A, class B and class C (FIG. 13). These “phenoclusters” have the following growth phenotype: (a) three mutants IH728, IH938, IH731 show with robust growth under low and high (≧800 μM heme (FIG. 13B), (b) one mutant IH828 show exceptional growth under low heme, moderate growth at ≦800 μM heme, and no growth at 1000 μM hemin (FIG. 13C), and (c) six mutants IH921, IH11058, IH1068n, IH1068d, IH1048, and IH718 that show moderate growth under high heme (≦800 μM), but normal growth under low heme (FIG. 13D). By classifying these mutants into phenoclusters, we can focus our efforts on the phenotypic datasets to map the molecular networks and pathways involved in heme dependent processes. For instance, mutants in a cluster may have mutations within the same gene or in multiple genes but within the same pathway.
(§2) Worm Culture and Growth Assays. Free-living worms were cultured in CeHR axenic liquid medium (Dr. Eric Clegg, Personal Communication). […] CeHR medium was modified (henceforth called mCeHR) to eliminate all sources of exogenously added heme; basal growth medium comprised 20 μM hemin chloride (Frontier Scientific, Logan, Utah) and 150 μM of ferrous ammonium sulfate (Sigma Chemicals). Worm strains were grown in mCeHR medium under aerobic conditions in tissue culture flasks at 20° C. ˜3.7×10^6 worms were routinely obtained after 3.5 to 4 days in a T75 flask with 30 ml basal medium from an initial inoculum of −1.5×10^5 worms. For initial culturing of worms in axenic media, three generations of worms were sequentially bleached (1.1% bleach/0.55 M NaOH) to eliminate any contaminating bacterial carryover from agar plates. In all dose-response experiments, worms were growth synchronized by treating the gravid hermaphrodite worms with bleach to dissolve adult worms. The eggs, resistant to bleach, were liberated from the carcasses and extensively washed with M9 buffer followed by overnight hatching in M9 buffer to synchronize growth. By harvesting at appropriate time intervals, synchronous larval stages and adult staged worms were collected for experimental manipulations. Identical numbers of synchronized L1 larvae were inoculated into media with different heme concentrations in 12- or 24-well culture plates. Worm growth was monitored each day and an aliquot was obtained for counting by microscopy usually at days 3, 6, and 9. The worms in each well were counted twice and each growth condition was analyzed in triplicate. P values for statistical significance were calculated utilizing a one-way ANOVA with Student-Newman-Keuls multiple comparison test using GraphPad Instat version 3.01. […]

For another test, the system named is C. elegans mutant IH1048. Details: key to Growth 1.6 μM hemin / Growth 0.5 μM GaPP: + = wild type equivalent In growth; ND: No growth. As for the experimental part: as §1, §2
Test [2] deals with C. elegans mutant IH1068 d. Details: key to Growth 1.6 μM hemin / Growth 0.5 μM GaPP: + = wild type equivalent In growth; ND: No growth. As for the experimental part: as §1, §2
In another test the test system is C. elegans mutant IH718. Details: key: + = wild type equivalent In growth; ND: No growth. As for the experimental part:
To further increase the stringency of our genetic screen we split the contents from each 800 μM hemin selection flasks into two flasks containing either 800 μM or 1000 μM hemin. This allowed us to use another tier of positive selection to identify mutants with greater resistance to heme toxicity. Mutants from each flask were isolated and treated as a separate entity by giving an identification number based on the Genetic Nomenclature Guidelines used for C. elegans (http://biosci.umn.edu/CGC/Nomenclature/nomenguid.htm). To eliminate EMS-induced spurious mutations that could result in false positive, the mutants were outcrossed to wild-type N2 males. After five outcrosses, which replaces ˜97% of the mutant genome, mutants that bred true were selected for further analysis. Using this procedure, we isolated 13 individual mutants that were resistant to heme toxicity. […]
Worm Culture and Growth Assays. […] Worm growth was monitored each day and an aliquot was obtained for counting by microscopy usually at days 3, 6, and 9. The worms in each well were counted twice and each growth condition was analyzed in triplicate. P values for statistical significance were calculated utilizing a one-way ANOVA with Student-Newman-Keuls multiple comparison test using GraphPad Instat version 3.01. […]

Regarding hemin chloride, the “Growth 1.6 μM hemin” value (in test [1]; with C. elegans mutant IH1048; in test [2]; with C. elegans mutant IH718) was “+” in each case. For the same substance, in test [1] (20 μM hemin), the “Generation time (Days) 20 μM” value was 4 days. The “Generation time (Days) 800 μM” value (in the test on C. elegans mutant IH1048 (800 μM hemin); in test [2] (800 μM hemin)) was 4 days each time. For the same substance, in test [2] (20 μM hemin, average in 24 well plates), the “brood size 20 μM” value worked out at 12.4.

For the origin of these results see patent US20060206946A1, “Method of disrupting heme transport in nematodes and of modelling and evaluating eukaryotic heme transport” (priority 2005, published 2006).
